Results taken from ChEMBL document CHEMBL3045590, “Design, synthesis, bioactivity, and structure-activity relationship (SAR) studies of novel benzoylphenylureas containing oxime ether group” (2008).
Converted amounts (≈) assume the structure as drawn.

Tests used:
Format in all cases: functional
[1] = tested on: Culex pipiens pallens; assay: Larvicidal activity against fourth-instar larval stage of Culex pipiens pallens (mosquito) assessed as mortality at 0.5 mg/l at 25 +/-1 degC after 8 days; conditions: 192 h
[2] = tested on: Mythimna separata; assay: Larvicidal activity against fourth-instar larval stage of Mythimna separata (Oriental armyworm) in compound-pretreated corn leaves assessed as mortality at 100 mg/l at 25 +/-1 degC after 4 days
[3] = tested on: Cucumis sativus; assay: Growth regulation of Cucumis sativus (cucumber) seeds assessed as stimulation of radicle growth at 10 mg/l at 26 degC after 5 days
[4] = tested on: Mythimna separata; assay: Larvicidal activity against fourth-instar larval stage of Mythimna separata (Oriental armyworm) in compound-pretreated corn leaves assessed as mortality at 50 mg/l at 25 +/-1 degC after 4 days
[5] = tested on: Culex pipiens pallens; assay: Larvicidal activity against fourth-instar larval stage of Culex pipiens pallens (mosquito) assessed as mortality at 0.05 mg/l at 25 +/-1 degC after 8 days; conditions: 192 h
[6] = tested on: Culex pipiens pallens; assay: Larvicidal activity against fourth-instar larval stage of Culex pipiens pallens (mosquito) assessed as mortality at 0.1 mg/l at 25 +/-1 degC after 8 days; conditions: 192 h
[7] = tested on: Culex pipiens pallens; assay: Larvicidal activity against fourth-instar larval stage of Culex pipiens pallens (mosquito) assessed as mortality at 0.025 mg/l at 25 +/-1 degC after 8 days; conditions: 192 h
[8] = tested on: Culex pipiens pallens; assay: Larvicidal activity against fourth-instar larval stage of Culex pipiens pallens (mosquito) assessed as mortality at 0.25 mg/l at 25 +/-1 degC after 8 days; conditions: 192 h
[9] = tested on: Culex pipiens pallens; assay: Larvicidal activity against fourth-instar larval stage of Culex pipiens pallens (mosquito) assessed as mortality at 1 mg/l at 25 +/-1 degC after 8 days; conditions: 192 h
[10] = tested on: Mythimna separata; assay: Larvicidal activity against fourth-instar larval stage of Mythimna separata (Oriental armyworm) in compound-pretreated corn leaves assessed as mortality at 200 mg/l at 25 +/-1 degC after 4 days
[11] = tested on: Culex pipiens pallens; assay: Larvicidal activity against fourth-instar larval stage of Culex pipiens pallens (mosquito) assessed as mortality at 0.01 mg/l at 25 +/-1 degC after 8 days; conditions: 192 h
[12] = tested on: Mythimna separata; assay: Larvicidal activity against fourth-instar larval stage of Mythimna separata (Oriental armyworm) in compound-pretreated corn leaves assessed as mortality at 2.5 mg/l at 25 +/-1 degC after 4 days
[13] = tested on: Mythimna separata; assay: Larvicidal activity against fourth-instar larval stage of Mythimna separata (Oriental armyworm) in compound-pretreated corn leaves assessed as mortality at 25 mg/l at 25 +/-1 degC after 4 days
[14] = tested on: Mythimna separata; assay: Larvicidal activity against fourth-instar larval stage of Mythimna separata (Oriental armyworm) in compound-pretreated corn leaves assessed as mortality at 1 mg/l at 25 +/-1 degC after 4 days
[15] = tested on: Mythimna separata; assay: Larvicidal activity against fourth-instar larval stage of Mythimna separata (Oriental armyworm) in compound-pretreated corn leaves assessed as mortality at 10 mg/l at 25 +/-1 degC after 4 days
[16] = tested on: Mythimna separata; assay: Larvicidal activity against fourth-instar larval stage of Mythimna separata (Oriental armyworm) in compound-pretreated corn leaves assessed as mortality at 25 +/-1 degC after 4 days
[17] = tested on: Mythimna separata; assay: Larvicidal activity against fourth-instar larval stage of Mythimna separata (Oriental armyworm) in compound-pretreated corn leaves assessed as mortality at 5 mg/l at 25 +/-1 degC after 4 days
[18] = tested on: Culex pipiens pallens; assay: Larvicidal activity against fourth-instar larval stage of Culex pipiens pallens (mosquito) assessed as mortality at 0.005 mg/l at 25 +/-1 degC after 8 days; conditions: 192 h
[19] = tested on: Culex pipiens pallens; assay: Larvicidal activity against fourth-instar larval stage of Culex pipiens pallens (mosquito) assessed as mortality at 0.0025 mg/l at 25 +/-1 degC after 8 days; conditions: 192 h
[20] = tested on: Mythimna separata; assay: Larvicidal activity against fourth-instar larval stage of Mythimna separata (Oriental armyworm) in compound-pretreated corn leaves assessed as mortality at 0.5 mg/l at 25 +/-1 degC after 4 days
[21] = tested on: Culex pipiens pallens; assay: Larvicidal activity against fourth-instar larval stage of Culex pipiens pallens (mosquito) assessed as mortality at 0.001 mg/l at 25 +/-1 degC after 8 days; conditions: 192 h
[22] = tested on: Culex pipiens pallens; assay: Larvicidal activity against fourth-instar larval stage of Culex pipiens pallens (mosquito) assessed as mortality at 2 mg/l at 25 +/-1 degC after 8 days; conditions: 192 h

Row | Structure (SMILES) | mortality at 0.5 µg/mL [1] [%] | mortality at 100 µg/mL [2] [%] | Activity [3] [%] | mortality at 50 µg/mL [4] [%] | mortality at 0.05 µg/mL [5] [%] | mortality at 0.1 µg/mL [6] [%] | mortality at 0.025 µg/mL [7] [%] | mortality at 0.25 µg/mL [8] [%] | mortality at 1 µg/mL [9] [%] | mortality at 0.01 µg/mL [11] [%] | mortality at 2.5 µg/mL [12] [%] | mortality at 25 µg/mL [13] [%] | mortality at 10 µg/mL [15] [%] | other results
1 | CCCCO/N=C/c1ccc(NC(=O)NC(=O)c2c(F)cccc2F)cc1 | 100 | 40 | 50 | 0 | 100 | 100 | 0 | 100 | 100 |  |  |  |  | mortality at 200 µg/mL [10]: 50%
2 | C#CCO/N=C/c1ccc(NC(=O)NC(=O)c2c(F)cccc2F)cc1 | 100 |  |  | 100 | 40 | 100 | 10 | 100 | 100 | 0 | 10 | 75 | 55 | mortality at 1 µg/mL [14]: 0%
3 | O=C(NC(=O)c1c(F)cccc1F)Nc1cc(Cl)c(F)c(Cl)c1F [TEFLUBENZURON] |  |  |  |  |  |  |  |  |  |  |  |  |  | LC50 [16]: 1.14 µg/mL (≈ 2.99 µM)
4 | O=C(NC(=O)c1c(F)cccc1F)Nc1cc(Cl)c(OC(F)(F)C(F)F)c(Cl)c1 [HEXAFLUMURON] |  |  |  |  |  |  |  |  |  |  |  |  |  | LC50 [16]: 4.7 µg/mL (≈ 10.2 µM)
5 | COCCO/N=C/c1ccc(NC(=O)NC(=O)c2c(F)cccc2F)cc1 | 0 | 10 | 30 | 0 |  |  |  |  | 100 |  |  |  |  | mortality at 200 µg/mL [10]: 40%
6 | CCC(C)O/N=C/c1ccc(NC(=O)NC(=O)c2c(F)cccc2F)cc1 (configuration not stated) |  |  |  |  | 100 | 100 | 100 |  |  | 40 | 30 | 100 | 80 | mortality at 5 µg/mL [17]: 50%; mortality at 0.005 µg/mL [18]: 20%; mortality at 0.0025 µg/mL [19]: 10%; mortality at 1 µg/mL [14]: 0%
7 | O=C(NC(=O)c1c(F)cccc1F)Nc1ccc(CO/N=C(/c2ccc(Cl)cc2)C2CC2)cc1 [FLUCYCLOXURON] |  |  |  |  | 100 | 100 | 15 |  |  | 0 | 50 |  | 95 | mortality at 5 µg/mL [17]: 90%; LC50 [16]: 2.44 µg/mL (≈ 5.04 µM); mortality at 0.5 µg/mL [20]: 0%; mortality at 1 µg/mL [14]: 10%
8 | O=C(NC(=O)c1c(Cl)cccc1Cl)Nc1ccc(Cl)cc1 [DICHLORBENZURON] |  |  |  |  |  |  |  |  |  |  |  |  |  | LC50 [16]: 1.82 µg/mL (≈ 5.3 µM)
9 | O=C(NC(=O)c1ccccc1Cl)Nc1ccc(Cl)cc1 [CHLORBENZURON] |  |  |  |  |  |  |  |  |  |  |  |  |  | LC50 [16]: 2.29 µg/mL (≈ 7.41 µM)
10 | O=C(NC(=O)c1c(F)cccc1F)Nc1cc(Cl)c(Oc2ncc(C(F)(F)F)cc2Cl)c(Cl)c1 [CHLORFLUAZURON] |  |  |  |  |  |  |  |  |  |  |  |  |  | LC50 [16]: 1.03 µg/mL (≈ 1.91 µM)
11 | CO/N=C/c1ccc(NC(=O)NC(=O)c2c(F)cccc2F)cc1 | 100 | 90 | 30 | 40 | 100 | 100 | 10 | 100 | 100 | 0 |  | 0 |  | 
12 | COC(=O)CO/N=C/c1ccc(NC(=O)NC(=O)c2c(F)cccc2F)cc1 | 100 | 80 |  | 56.7 |  | 0 |  | 80 | 100 |  | 0 | 30 | 10 | mortality at 200 µg/mL [10]: 90%
13 | O=C(NC(=O)c1c(F)cccc1F)Nc1ccc(/C=N/OCCF)cc1 | 100 |  | 110 | 90 | 10 | 60 | 0 | 100 | 100 |  | 0 | 90 | 20 | 
14 | O=C(NC(=O)c1c(F)cccc1F)Nc1ccc(/C=N/OC2CCCC2)cc1 | 100 | 20 | 85 | 0 | 10 | 100 | 0 | 100 | 100 |  |  |  |  | mortality at 200 µg/mL [10]: 70%
15 | O=C(NC(=O)c1c(F)cccc1F)Nc1ccc(/C=N/OCC2CC2)cc1 |  |  |  |  |  |  |  |  |  | 100 | 90 | 100 | 100 | mortality at 5 µg/mL [17]: 100%; mortality at 0.001 µg/mL [21]: 0%; mortality at 0.005 µg/mL [18]: 100%; mortality at 0.0025 µg/mL [19]: 60%; mortality at 1 µg/mL [14]: 0%
16 | O=C(NC(=O)c1c(F)cccc1F)Nc1ccc(/C=N/OCc2ccccc2)cc1 | 100 | 30 | 60 | 10 |  | 10 |  | 20 | 100 |  |  | 0 |  | mortality at 200 µg/mL [10]: 40%
17 | C=CCO/N=C/c1ccc(NC(=O)NC(=O)c2c(F)cccc2F)cc1 | 100 | 90 | 120 | 66.7 |  | 90 | 0 | 100 | 100 |  |  | 10 | 0 | 
18 | CC(C)CO/N=C/c1ccc(NC(=O)NC(=O)c2c(F)cccc2F)cc1 | 100 | 100 | 45 | 80 | 10 | 100 | 10 | 100 | 100 | 0 | 0 | 30 |  | 
19 | CCCCCO/N=C/c1ccc(NC(=O)NC(=O)c2c(F)cccc2F)cc1 | 90 |  | 50 | 90 | 0 | 15 |  | 80 | 100 |  |  | 20 | 0 | mortality at 2 µg/mL [22]: 100%
20 | CCO/N=C/c1ccc(NC(=O)NC(=O)c2c(F)cccc2F)cc1 | 100 | 100 | 0 | 100 |  | 100 | 10 | 100 | 100 | 0 |  | 75 | 10 | mortality at 5 µg/mL [17]: 0%
21 | CCCC(C)O/N=C/c1ccc(NC(=O)NC(=O)c2c(F)cccc2F)cc1 (configuration not stated) |  |  | 45 | 80 | 100 | 100 | 100 |  |  | 40 | 0 | 70 | 20 | mortality at 0.005 µg/mL [18]: 20%; mortality at 0.0025 µg/mL [19]: 10%
22 | O=C(NC(=O)c1c(F)cccc1F)Nc1ccc(/C=N/OCCCl)cc1 | 100 |  | 110 | 100 | 90 | 90 | 20 | 100 | 100 | 0 | 55 |  | 100 | mortality at 5 µg/mL [17]: 75%; mortality at 1 µg/mL [14]: 0%
23 | CCCO/N=C/c1ccc(NC(=O)NC(=O)c2c(F)cccc2F)cc1 | 100 | 80 |  | 70 | 50 | 100 | 0 | 100 | 100 |  | 0 | 20 |  | 
